Results from patent US20250122193A1, “NOVEL PYRIDOCARBAZOLIUM COMPOUNDS AND MEDICAL USES THEREOF” (MyCural Therapeutics, priority 2021, published 2025).
One block for each compound: values may come before it.

How the values were obtained:
[1] = target: Recombinant human Top2a (Homo sapiens, UniProt P11388); test: Top2 decatenation assay; type: biochemical; conditions: for effect on TOP2A activity: 1-100 μM
Method: Top2 decatenation assay: Recombinant human Top2a (15 nM) was incubated with 80 ng catenated kinetoplast DNA (Topogen, TG2013) in Top2 reaction buffer (50 mM Tris pH8, 150 mM NaCl, 10 mM MgCl2, 0.5 mM DTT, 30 μg/ml BSA) with 1-100 μM of either doxorubicin, MYCMI-7, ellipticine or camptothecin for 10 minutes at 37° C. Drug dilutions were made in a DMSO/H2O solution so that a final concentration of 1% DMSO was consistent across all samples. The reaction was stopped with the addition of SDS to a final concentration of 1% and the Top2a was digested by Proteinase K at 55° C. for 10 minutes. DNA was purified by phenol:chloroform extraction before running on a 1% agarose gel either containing or post-stained with 0.5 μg/ml ethidium bromide. The decatenated products were quantified, normalised to the Top2α+DMSO control and plotted using GraphPad Prism.
First, we utilized an in vitro TOP2A decatenation assay. TOP2 enzymes decatenate kinetoplast DNA (kDNA) converting a network of interlocking DNA rings into individual rings that can be separated by agarose gel electrophoresis.

[2] = tested on: p53 expression; test: p53 expression by western blot; type: cell-based; conditions: 5 μM, HCT116 cells
Method: (§1) A) Measurement of MYC mRNA expression by RTqPCR after treatment with MYCMI-7 and different topoisomerase inhibitors at indicated concentrations. […] D) Western blot analysis of p53 and p21 expression after exposure to 5 μM MYCMI-7, ellipticine or camptothecin (CPT) in HCT116 cells. E) Western blot analysis of phospho-ATM, total ATM and p53 expression after exposure to indicated concentrations of MYCMI-7 and ellipticine in A375 cells after 3 hrs treatment.
(§2) For western blot equal amounts of proteins ([…]) were separated on a 4-12% SDS-PAGE gel. Proteins were transferred to Immobilion-P membrane (Millipore) and detected by immunostaining and chemoluminescence (Immobilion western HRP substrate; Millipore). For immunoprecipitations 500-1000 μg of protein was used. […] Briefly, cells were crosslinked with 1% formaldehyde on ice for 6 minutes. Nuclear chromatin was sonicated on ice to fragments from 0.3 kb to 0.5 kb. Nuclear chromatin equivalent to 2.5×10^7 cells was immunoprecipitated with 2 μg antibody.

[3] = target: T1, MYCN:MAX interaction (Homo sapiens, UniProt P04198); test: split Gaussia luciferase (GLuc) assay, MYCN:MAX; type: cell-based; conditions: HeLa cells
T1 construct: replacing the existing Zip-gene (GCN4) with full length MYC, MYCN or MAX cDNA; expressed in transfected cells; host or cells: HeLa
T1 sequence (P04198 1-464): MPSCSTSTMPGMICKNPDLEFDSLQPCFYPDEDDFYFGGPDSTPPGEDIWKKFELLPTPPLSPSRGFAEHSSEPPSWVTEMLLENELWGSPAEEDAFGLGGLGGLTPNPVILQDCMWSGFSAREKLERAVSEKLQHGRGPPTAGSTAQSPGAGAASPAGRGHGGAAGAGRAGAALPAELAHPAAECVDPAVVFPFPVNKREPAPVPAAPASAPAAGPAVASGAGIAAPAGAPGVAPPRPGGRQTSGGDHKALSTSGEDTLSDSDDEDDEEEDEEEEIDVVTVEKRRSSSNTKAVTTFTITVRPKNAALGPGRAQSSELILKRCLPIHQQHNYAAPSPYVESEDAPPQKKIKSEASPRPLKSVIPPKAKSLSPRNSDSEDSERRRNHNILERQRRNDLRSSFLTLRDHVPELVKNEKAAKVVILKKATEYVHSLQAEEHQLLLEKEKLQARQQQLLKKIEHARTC
Method: A) Molecular structure of MYCMI-7. B-E) split Gaussia luciferase (GLuc) assay. MYC or MYCN and MAX Gluc constructs were co-transfected into HeLa cells together with a firefly luciferase vector. 24 hours post transfection cells were treated with compounds, and after another 17-24 hours cells were harvested and both GLuc and firefly luciferase activities were measured. The mean of three different experiments is shown. Treatment with: B) 5 μM of MYCMI-7, 64 μM 10058-F4 or 5 μM JQ1, respectively, C) 6.5 μM MYCMI-7 on cells expressing MYC:MAX GLuc vs. GCN4:GCN4 GLuc, D) 5 μM MYCMI-7 and 5 μM ellipticine. E) 5 μM MYCMI-7 for various time points. F) in situ proximity ligation assay (isPLA). […] MYC:GAL4 was used as negative control in the isPLA assay. G) Quantification of isPLA dots. (H) Co-immunoprecipitation (co-IP) of endogenous MYC and MAX proteins from MCF7 cells after treatment with 5 μM MYCMI-7 at various times. IP=immunoprecipitation; W=western blot. I) Chromatin immunoprecipitation (ChIP) of MYC at the ODC1 target gene promoter after treatment of cells with 5 μM MYCMI-7 for 6 hours. J) MYC target gene ODC1 expression after treatment with 5 μM MYCMI-7, quantified by qPCR. […] L) Recombinant MYC bHLHZip protein domain immobilized onto a CM5 chip was subjected to various concentrations of MYCMI-7 and the complex of MYCbHLHZip-MYCMI-7 was measured as response units by SPR. […]
0.2-0.4 μg of each GLuc-construct together with 0.05 μg pCMV-LUC (firefly luciferase) were used per transfection in 12 well plates. […] After 60 min incubation at room temperature 20 μM D-luciferin was added (substrate of Firefly luciferase) and luminescence was measured in a Lumat LB9501 (Berthold) or OmegaFluostar (BMG Labtech) luminometer. Directly after, Gaussia luciferase substrate Coelenterazine (Promega) was added to a final concentration of 20 μM in a mixture with “Stop n' Glow” (Promega) and the luciferase activity was measured. The ratio between Gaussia and Firefly luciferase values were calculated and normalized to DMSO-treated control cells.

[4] = target: MYC:MAX interaction (Homo sapiens, UniProt P01106); test: split Gaussia luciferase (GLuc) assay, MYC:MAX; type: cell-based; set-up: replacing the existing Zip-gene (GCN4) with full length MYC, MYCN or MAX cDNA; expressed in transfected cells; host or cells: HeLa; conditions: HeLa cells
Chain of MYC:MAX interaction (P01106 16-454): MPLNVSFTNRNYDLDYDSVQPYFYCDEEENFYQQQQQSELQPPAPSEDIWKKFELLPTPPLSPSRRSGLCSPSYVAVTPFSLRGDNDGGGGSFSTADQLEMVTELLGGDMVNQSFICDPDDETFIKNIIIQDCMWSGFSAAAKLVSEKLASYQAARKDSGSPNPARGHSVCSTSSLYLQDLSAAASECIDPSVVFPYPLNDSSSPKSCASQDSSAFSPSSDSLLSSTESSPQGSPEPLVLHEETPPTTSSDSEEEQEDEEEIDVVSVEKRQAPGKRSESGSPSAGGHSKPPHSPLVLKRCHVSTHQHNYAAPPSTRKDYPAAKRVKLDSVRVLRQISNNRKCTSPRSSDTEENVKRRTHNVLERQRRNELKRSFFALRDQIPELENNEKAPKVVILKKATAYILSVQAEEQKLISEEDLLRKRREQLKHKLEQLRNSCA
Method: A) Molecular structure of MYCMI-7. B-E) split Gaussia luciferase (GLuc) assay. MYC or MYCN and MAX Gluc constructs were co-transfected into HeLa cells together with a firefly luciferase vector. 24 hours post transfection cells were treated with compounds, and after another 17-24 hours cells were harvested and both GLuc and firefly luciferase activities were measured. The mean of three different experiments is shown. Treatment with: B) 5 μM of MYCMI-7, 64 μM 10058-F4 or 5 μM JQ1, respectively, C) 6.5 μM MYCMI-7 on cells expressing MYC:MAX GLuc vs. GCN4:GCN4 GLuc, D) 5 μM MYCMI-7 and 5 μM ellipticine. E) 5 μM MYCMI-7 for various time points. F) in situ proximity ligation assay (isPLA). […] MYC:GAL4 was used as negative control in the isPLA assay. G) Quantification of isPLA dots. (H) Co-immunoprecipitation (co-IP) of endogenous MYC and MAX proteins from MCF7 cells after treatment with 5 μM MYCMI-7 at various times. IP=immunoprecipitation; W=western blot. I) Chromatin immunoprecipitation (ChIP) of MYC at the ODC1 target gene promoter after treatment of cells with 5 μM MYCMI-7 for 6 hours. J) MYC target gene ODC1 expression after treatment with 5 μM MYCMI-7, quantified by qPCR. K) ChIP of MYC at the ODC promoter in MCF7 cells after 5 μM MYCMI-7 treatment for indicated time points. L) Recombinant MYC bHLHZip protein domain immobilized onto a CM5 chip was subjected to various concentrations of MYCMI-7 and the complex of MYCbHLHZip-MYCMI-7 was measured as response units by SPR. The sensogram was produced by subtracting the blank response.
0.2-0.4 μg of each GLuc-construct together with 0.05 μg pCMV-LUC (firefly luciferase) were used per transfection in 12 well plates. 24 hours later cells were treated with compound or DMSO. After another 17 hours, the cells were harvested and lyzed in passive lysis buffer (Promega) supplemented with complete protease inhibitor (Roche). After 60 min incubation at room temperature 20 μM D-luciferin was added (substrate of Firefly luciferase) and luminescence was measured in a Lumat LB9501 (Berthold) or OmegaFluostar (BMG Labtech) luminometer. Directly after, Gaussia luciferase substrate Coelenterazine (Promega) was added to a final concentration of 20 μM in a mixture with “Stop n' Glow” (Promega) and the luciferase activity was measured. The ratio between Gaussia and Firefly luciferase values were calculated and normalized to DMSO-treated control cells.

[5] = tested on: MYC mRNA; test: MYC mRNA expression by RT-qPCR; type: cell-based; conditions: 1 μM
Method: as §1

[6] = tested on: Rat1 fibroblasts TGR1 (wt MYC) and HOMyc3 (reconstituted MYC); test: WST-1 growth/viability assay, MYC-expressing Rat1 fibroblasts; type: cell-based, rat; conditions: TGR1, HO15.19 and HOMyc3
Method: A) Immortalized Rat1 fibroblasts with different MYC status; TGR1 (wt MYC), HO15.19 (MYC−/−) and HOMyc3 (HO15.19 with reconstituted MYC) were treated with indicated concentrations of MYCMI-7 for 48 hours. Cell proliferation/viability/metabolic activity was measured using the WST-1 assay. […] “Responsive” and “less responsive”; cell lines with positive and negative log 10 GI50 values, respectively. […] For the WST-1 assays the average of three different experiments performed in triplicates is shown.
Cell growth and viability assays: Cell growth and viability was estimated in triplicates with WST-1 (Roche) or Resazurin sodium salt (Sigma-Aldrich) assays in medium at 37° C. and 5% CO2 for 2 hours after which absorbance or fluorescence, respectively, was measured with an Omega Fluostar (BMG Labtech) in a 96 well plate format.

[7] = tested on: phosphorylation of ATM; test: phospho-ATM and p53 by western blot, A375; type: cell-based; conditions: 5 μM, A375 cells, 3 hrs
Method: as §1, §2

Chain of Recombinant human Top2a (P11388 whole entry): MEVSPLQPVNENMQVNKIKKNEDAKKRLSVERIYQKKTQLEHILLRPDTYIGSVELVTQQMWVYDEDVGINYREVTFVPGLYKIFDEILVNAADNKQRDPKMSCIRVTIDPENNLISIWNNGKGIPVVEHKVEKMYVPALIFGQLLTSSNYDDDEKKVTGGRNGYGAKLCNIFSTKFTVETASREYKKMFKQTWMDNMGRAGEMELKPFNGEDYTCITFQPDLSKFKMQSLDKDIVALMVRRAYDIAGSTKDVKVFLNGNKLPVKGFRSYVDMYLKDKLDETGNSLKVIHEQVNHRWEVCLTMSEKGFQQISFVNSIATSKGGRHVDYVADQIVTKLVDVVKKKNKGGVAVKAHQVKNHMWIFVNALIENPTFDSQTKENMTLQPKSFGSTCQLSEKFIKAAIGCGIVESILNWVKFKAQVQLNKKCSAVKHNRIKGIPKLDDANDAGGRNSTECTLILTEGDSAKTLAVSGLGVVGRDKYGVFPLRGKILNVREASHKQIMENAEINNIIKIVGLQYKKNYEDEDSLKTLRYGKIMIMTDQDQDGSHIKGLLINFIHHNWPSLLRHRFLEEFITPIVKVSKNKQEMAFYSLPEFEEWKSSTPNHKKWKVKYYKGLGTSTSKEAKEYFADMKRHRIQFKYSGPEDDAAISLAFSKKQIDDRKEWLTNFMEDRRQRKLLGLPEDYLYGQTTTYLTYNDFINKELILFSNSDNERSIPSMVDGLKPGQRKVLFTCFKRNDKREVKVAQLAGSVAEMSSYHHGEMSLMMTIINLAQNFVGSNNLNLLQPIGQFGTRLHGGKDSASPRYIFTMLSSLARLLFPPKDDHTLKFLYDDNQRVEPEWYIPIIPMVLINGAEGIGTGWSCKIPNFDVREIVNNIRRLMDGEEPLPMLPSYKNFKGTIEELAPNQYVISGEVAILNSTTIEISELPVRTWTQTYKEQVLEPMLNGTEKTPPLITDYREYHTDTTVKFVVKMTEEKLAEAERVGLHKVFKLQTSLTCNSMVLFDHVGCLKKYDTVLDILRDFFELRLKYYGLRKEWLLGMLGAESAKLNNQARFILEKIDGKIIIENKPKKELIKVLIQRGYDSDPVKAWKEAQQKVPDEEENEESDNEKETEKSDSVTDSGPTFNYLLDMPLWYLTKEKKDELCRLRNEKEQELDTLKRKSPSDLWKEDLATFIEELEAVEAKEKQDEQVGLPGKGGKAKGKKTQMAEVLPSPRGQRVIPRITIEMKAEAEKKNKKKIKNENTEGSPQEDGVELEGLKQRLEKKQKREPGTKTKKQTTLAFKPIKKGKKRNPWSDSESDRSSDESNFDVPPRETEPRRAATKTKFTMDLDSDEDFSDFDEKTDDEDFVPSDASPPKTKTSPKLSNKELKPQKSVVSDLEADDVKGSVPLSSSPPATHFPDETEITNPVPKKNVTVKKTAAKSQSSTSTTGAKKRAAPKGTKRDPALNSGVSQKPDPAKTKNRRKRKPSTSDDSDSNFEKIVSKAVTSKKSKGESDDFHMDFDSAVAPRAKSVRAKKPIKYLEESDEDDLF

SMILES: CC[C@@]1(O)C(=O)OCc2c1cc1n(c2=O)Cc2cc3ccccc3nc2-1 [camptothecin, reference compound]
effect on TOP2A activity [1]: no effect
p53 expression [2]: induced p53 expression

inhibition of MYCN:MAX GLuc interaction ([3]; 64 μM): only weak effects
inhibition of MYC:MAX GLuc interaction ([4]; 64 μM): only weak effects
SMILES: CCc1ccc(/C=C2/SC(=S)NC2=O)cc1 [Example 10058-F4, 10058-F4]

SMILES: Cc1sc2c(c1C)C(c1ccc(Cl)cc1)=N[C@@H](CC(=O)OC(C)(C)C)c1nnc(C)n1-2 [JQ1]
inhibition of MYCN:MAX GLuc interaction ([3]; 5 μM): only weak effects
inhibition of MYC:MAX GLuc interaction ([4]; 5 μM): only weak effects

concentration at which TOP2A inhibition starts ([1]; in vitro decatenation of kDNA): 3 µM
concentration of complete TOP2A inhibition ([1]; in vitro decatenation of kDNA): 10 µM
SMILES: COc1cccc2c1C(=O)c1c(O)c3c(c(O)c1C2=O)C[C@@](O)(C(=O)CO)C[C@@H]3O[C@H]1C[C@H](N)[C@H](O)[C@H](C)O1 [doxorubicin]
MYC expression (mRNA) [5]: strongly reduced

SMILES: Cc1c2ccncc2c(C)c2c1[nH]c1ccccc12 [ellipticine, reference compound]
growth of Rat1 cell clones irrespective of MYC status [6]: reduced growth of all three cell clones
effect on TOP2A activity [1]: no effect
p53 expression [2]: induced p53 expression
phosphorylation of ATM and p53 expression (DDR signaling) [7]: strongly induced
inhibition of MYC:MAX GLuc interaction ([4]; 5 μM): inactive
